The supplement of paper PMC10307832

Key:
Experiment in all cases: relative viability (nuclei count vs DMSO), 5 days (fraction); higher = more cells survive
Carfilzomib + AZD7762 = compound: CC(C)C[C@H](NC(=O)[C@H](CCc1ccccc1)NC(=O)CN1CCOCC1)C(=O)N[C@@H](Cc1ccccc1)C(=O)N[C@@H](CC(C)C)C(=O)[C@@]1(C)CO1 [Carfilzomib] + NC(=O)Nc1cc(-c2cccc(F)c2)sc1C(=O)N[C@H]1CCCNC1 [AZD7762] (partner 0.2 µM)
How it was run: (§1)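 Relative viability is defined as nuclei in treated wells over nuclei in vehicle wells. Duplicate plates were run and medians reported. Lung cancer cell lines in 1536-well plates were dosed by pin tool one day after seeding, with one drug or with a fixed anchor-drug dose plus five library-drug doses (not always all listed) in √10 steps, and nuclei were counted after 5 days.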

Olaparib + Vorinostat = compound: O=C(c1cc(Cc2n[nH]c(=O)c3ccccc23)ccc1F)N1CCN(C(=O)C2CC2)CC1 [Olaparib] + O=C(CCCCCCC(=O)Nc1ccccc1)NO [Vorinostat] (partner 1 µM)
How it was run: as §1

Crizotinib + Bortezomib = compound: C[C@@H](Oc1cc(-c2cnn(C3CCNCC3)c2)cnc1N)c1c(Cl)ccc(F)c1Cl [Crizotinib] + CC(C)C[C@H](NC(=O)[C@H](Cc1ccccc1)NC(=O)c1cnccn1)B(O)O [Bortezomib] (partner 0.002 µM)
How it was run: as §1

Carfilzomib + Bortezomib = compound: CC(C)C[C@H](NC(=O)[C@H](CCc1ccccc1)NC(=O)CN1CCOCC1)C(=O)N[C@@H](Cc1ccccc1)C(=O)N[C@@H](CC(C)C)C(=O)[C@@]1(C)CO1 [Carfilzomib] + CC(C)C[C@H](NC(=O)[C@H](Cc1ccccc1)NC(=O)c1cnccn1)B(O)O [Bortezomib] (partner 0.002 µM)
How it was run: as §1

Cell Line | relative viability (Carfilzomib + AZD7762; first compound 0.001 µM) | relative viability (Carfilzomib + AZD7762; first compound 0.003162 µM) | relative viability (Carfilzomib + AZD7762; first compound 0.01 µM) | relative viability (Carfilzomib + AZD7762; first compound 0.03162 µM) | relative viability (Carfilzomib + AZD7762; first compound 0.1 µM) | relative viability (Olaparib + Vorinostat; first compound 0.08 µM) | relative viability (Olaparib + Vorinostat; first compound 0.253 µM) | relative viability (Olaparib + Vorinostat; first compound 2.53 µM) | relative viability (Olaparib + Vorinostat; first compound 8 µM) | relative viability (Crizotinib + Bortezomib; first compound 0.01 µM) | relative viability (Crizotinib + Bortezomib; first compound 0.03162 µM) | relative viability (Crizotinib + Bortezomib; first compound 0.1 µM) | relative viability (Crizotinib + Bortezomib; first compound 0.3162 µM) | relative viability (Crizotinib + Bortezomib; first compound 1 µM) | relative viability (Carfilzomib + Bortezomib; first compound 0.001 µM) | relative viability (Carfilzomib + Bortezomib; first compound 0.003162 µM) | relative viability (Carfilzomib + Bortezomib; first compound 0.01 µM) | relative viability (Carfilzomib + Bortezomib; first compound 0.03162 µM) | relative viability (Carfilzomib + Bortezomib; first compound 0.1 µM)
NCI-H1975 | 0.651 | 0.804 | 0.684 | 0.222 | 0.19 | 0.739 | 0.649 | 0.717 | 0.624 | 0.317 | 0.362 | 0.315 | 0.373 | 0.404 | 0.255 | 0.266 | 0.137 | 0.122 | 0.13
NCI-H2347 | 0.696 | 0.814 | 0.642 | 0.229 | 0.289 | 0.577 | 0.568 | 0.588 | 0.398 | 1.02 | 0.919 | 1.15 | 0.95 | 1.14 | 0.611 | 0.89 | 0.698 | 0.361 | 0.268
PC-14 | 0.377 | 0.368 | 0.392 | 0.158 | 0.0776 | 0.889 | 0.579 | 0.709 | 0.34 | 0.892 | 0.742 | 0.905 | 0.805 | 0.961 | 0.888 | 0.963 | 0.494 | 0.0957 | 0.0938
ABC-1 | – | 0.786 | 0.506 | – | 1.01 | 1.13 | – | 1.08 | 1.07 | 0.277 | 0.368 | 0.292 | 0.279 | 0.299 | 0.334 | 0.231 | 0.242 | 0.27 | 0.225
ChaGo-K-1 | 0.813 | 0.898 | 0.855 | 0.542 | 0.152 | 0.815 | 0.665 | 0.63 | 0.416 | 0.947 | – | 1.2 | – | 0.96 | – | 1.25 | 0.851 | 0.501 | 0.381
NCI-H838 | 0.945 | 0.989 | 0.954 | 0.962 | 0.621 | 0.747 | 0.646 | 0.709 | 0.65 | 0.806 | 0.695 | 0.968 | 0.863 | – | 0.772 | 0.838 | 0.624 | 0.179 | 0.114
NCI-H2126 | 0.875 | 1 | 1.01 | 1.01 | 0.697 | 0.803 | 0.773 | 0.819 | 0.777 | 1.04 | 1.13 | 1.2 | – | 1.16 | 1.11 | 1.12 | 1.1 | 0.945 | 0.554
HCC-366 | 0.231 | 0.276 | 0.251 | 0.419 | 0.212 | 0.352 | 0.273 | 0.191 | 0.101 | 1.01 | 1.04 | 1.02 | – | 1.15 | 0.891 | 0.966 | 1.07 | 0.196 | 0.0175
NCI-H2085 | 0.726 | 0.942 | 0.988 | 0.321 | 0.293 | 0.844 | 0.703 | 0.749 | 0.616 | 0.995 | 1.22 | 1.07 | 1.02 | 1.02 | 1.03 | 0.923 | 0.773 | 0.451 | 0.313
